Results from ChEMBL document CHEMBL5154900, “Design and Synthesis of Dual EZH2/BRD4 Inhibitors to Target Solid Tumors” (J Med Chem, 2022).
Calls of active or inactive are those of the source. The rule behind the calls is not given here.

Tests used:
[1] = tested on: A549; experiment: Induction of apoptosis in human A549 cells assessed as upregulation of p21 protein at 1 uM inubated for 72 hrs by Western blot analysis; assay type: functional, cell-based
[2] = Tmax in 12 hr fasted BALB/c mouse at 80 mg/kg, po measured for 0.083 to 24 hrs by UPLC-MS/MS analysis; assay type: ADME, organism-based; conditions: in vivo, time 0.083-24 hrs
[3] = tested on: HCT-116; experiment: Effect on TRHDE mRNA levels in human HCT-116 cells at 5 uM incubated for 48 hrs by RT-qPCR analysis; assay type: functional, cell-based
[4] = tested on: HCT-116; experiment: Effect on TXINP mRNA levels in human HCT-116 cells at 5 uM incubated for 48 hrs by RT-qPCR analysis; assay type: functional, cell-based
[5] = target: T1, Bromodomain-containing protein 4 (Homo sapiens, UniProt O60885); experiment: Binding affinity to BRD4 in human A549 cell lysate assessed as increase in thermal stability at 10 uM incubated for 1 hr followed by temperature treatment at 45 to 54.5 degC for 3 mins by thermal shift assay; assay type: subcellular; conditions: time 63.0 min
[6] = Permeability of compound across apical to basolateral side in human Caco-2 cells measured for 1 to 3 hrs by LC-MS analysis; assay type: ADME, cell-based; conditions: time 1-3 hrs
[7] = tested on: A549; experiment: Induction of apoptosis in human A549 cells assessed as downregulation of Bcl-xl protein at 1 uM inubated for 72 hrs by Western blot analysis; assay type: functional, cell-based
[8] = Clearance in 12 hr fasted BALB/c mouse at 80 mg/kg, ip measured for 0.083 to 24 hrs by UPLC-MS/MS analysis; assay type: ADME, organism-based; conditions: in vivo, time 0.083-24 hrs
[9] = tested on: A549; experiment: Antiproliferative activity against human A549 cells assessed as inhibition of cell proliferation at 1 uM incubated for 4 days by cell counter method; assay type: functional, cell-based; conditions: time 4.0 day
[10] = target: T2, Histone-lysine N-methyltransferase EZH2 (Homo sapiens, UniProt Q15910); experiment: Binding affinity to EZH2 in human A549 cell lysate assessed as increase in thermal stability at 10 uM incubated for 1 hr followed by temperature treatment at 45 to 54.5 degC for 3 mins by thermal shift assay; assay type: subcellular; conditions: time 63.0 min
Target sequence in this assay (Q15910 whole entry, looked up): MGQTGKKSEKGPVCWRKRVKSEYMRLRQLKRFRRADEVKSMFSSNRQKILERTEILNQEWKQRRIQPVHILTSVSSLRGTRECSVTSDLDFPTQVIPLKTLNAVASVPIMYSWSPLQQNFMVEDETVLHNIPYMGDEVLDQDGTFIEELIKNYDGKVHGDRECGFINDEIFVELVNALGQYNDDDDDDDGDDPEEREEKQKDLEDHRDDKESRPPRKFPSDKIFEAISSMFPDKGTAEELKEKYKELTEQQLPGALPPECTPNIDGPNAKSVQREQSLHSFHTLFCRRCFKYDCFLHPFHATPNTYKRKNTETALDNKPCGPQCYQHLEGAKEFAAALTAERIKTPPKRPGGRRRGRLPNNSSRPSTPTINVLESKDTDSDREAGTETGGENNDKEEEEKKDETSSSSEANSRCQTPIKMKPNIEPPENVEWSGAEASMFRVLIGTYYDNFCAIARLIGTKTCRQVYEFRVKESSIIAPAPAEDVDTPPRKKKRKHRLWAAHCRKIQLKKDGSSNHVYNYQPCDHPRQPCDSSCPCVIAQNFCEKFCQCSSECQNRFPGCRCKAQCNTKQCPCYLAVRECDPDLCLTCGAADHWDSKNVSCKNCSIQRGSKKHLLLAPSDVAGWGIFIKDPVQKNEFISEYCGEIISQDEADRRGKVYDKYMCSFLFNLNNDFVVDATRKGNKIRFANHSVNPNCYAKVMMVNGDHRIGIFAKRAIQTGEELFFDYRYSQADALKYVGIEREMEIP

[11] = tested on: ASPC1; experiment: Effect on TRHDE mRNA levels in human ASPC1 cells at 5 uM incubated for 48 hrs by RT-qPCR analysis; assay type: functional, cell-based
[12] = tested on: A549; experiment: Induction of cell cycle arrest in 24 hr starved human A549 cells assessed as accumulation at G0/G1 phase at 1 uM measured after 48 hrs by PI staining based flow cytometric analysis; assay type: functional
[13] = tested on: A549; experiment: Inhibition of EZH2/BRD4 in human A549 cell lysate assessed as ternary complex formation at 1 uM preincubated for 24 hrs for 30 mins followed by DSP treatment by co-immunoprecipitation method; assay type: subcellular; conditions: time 24.5 hrs
[14] = tested on: A549; experiment: Antitumor activity against human A549 cells xenografted in BALB/c mouse assessed as reduction in tumor volume at 60 mg/kg, ip administered 6 times weekly for 38 days and measured every 3 days relative to control; assay type: functional; parameters: scale not given: the % may be the effect or the level left; conditions: time 38 day
[15] = Tmax in 12 hr fasted BALB/c mouse at 80 mg/kg, ip measured for 0.083 to 24 hrs by UPLC-MS/MS analysis; assay type: ADME, organism-based; conditions: in vivo, time 0.083-24 hrs
[16] = AUC in 12 hr fasted BALB/c mouse at 80 mg/kg, ip measured for 0.083 to 24 hrs by UPLC-MS/MS analysis; assay type: ADME, organism-based; parameters: time lower 0.083 hrs, dose 80 mg/kg, time upper 24 hrs, route ip; conditions: in vivo
[17] = target: T2, Histone-lysine N-methyltransferase EZH2; experiment: Inhibition of EZH2 in human ASPC1 cells assessed as decrease in H3K27me3 levels at 1 uM incubated for 72 hrs by Western blot analysis; assay type: cell-based
Target sequence in this assay (Q15910 whole entry, looked up): as above

[18] = target: T1, Bromodomain-containing protein 4; experiment: Inhibition of BRD4 in human ASPC1 cells assessed as decrease in c-Myc level at 1 uM incubated for 72 hrs by Western blot analysis; assay type: cell-based
[19] = tested on: ASPC1; experiment: Induction of apoptosis in human ASPC-1 cells assessed as upregulation of p21 protein at 1 uM inubated for 72 hrs by Western blot analysis; assay type: functional, cell-based
[20] = target: T2, Histone-lysine N-methyltransferase EZH2
Target sequence in this assay (Q15910 whole entry): as the sequence (Q15910 whole entry, looked up) above

[21] = tested on: ASPC1; experiment: Induction of apoptosis in human ASPC-1 cells assessed as downregulation of Bcl-2 protein at 1 uM inubated for 72 hrs by Western blot analysis; assay type: functional, cell-based
[22] = tested on: ASPC1; experiment: Effect on ADRB2 mRNA levels in human ASPC1 cells at 5 uM incubated for 48 hrs by RT-qPCR analysis; assay type: functional, cell-based
[23] = Cmax in 12 hr fasted BALB/c mouse at 80 mg/kg, po measured for 0.083 to 24 hrs by UPLC-MS/MS analysis; assay type: ADME, organism-based; parameters: dose 80 mg/kg, time 0.083-24 hrs, route po; conditions: in vivo

- Tmax [2]: 1 h
- Activity [5]: Active
- permeability [6]: Impermeable
- CL/F [8]: 4.88 mL/min/kg
- Activity [10]: Active
- inhibition [13]: Active
- Tmax [15]: 1 h
- AUC [16]: 273 µg·h/mL
- inhibition [17]: Active
- inhibition [18]: Active
- IC50 [20]: 490 nM
- Cmax [23]: 4380 ng/mL
Structure (SMILES): CCN(c1cc(-c2ccc(OCCCCCNC(=O)C[C@@H]3N=C(c4ccc(Cl)cc4)c4c(sc(C)c4C)-n4c(C)nnc43)cc2)cc(C(=O)NCc2c(C)cc(C)[nH]c2=O)c1C)C1CCOCC1
- Activity [1]: Active
- Activity [3]: Active
- Activity [4]: Active
- Activity [7]: Active
- Activity [9]: Active
- Activity [11]: Active
- Activity [12]: Active
- Activity [14]: 63.4%
- Activity [19]: Active
- Activity [21]: Active
- Activity [22]: Active
